Experiments:
[1] = system: Lolium; assay: Pre-emergence test/greenhouse; assay type: in vivo; conditions: after three weeks
[2] = system: Amaranthus; assay: Pre-emergence test/greenhouse; assay type: in vivo; conditions: after three weeks
[3] = system: Alopecurus; assay: Pre-emergence test/greenhouse; assay type: in vivo; conditions: after three weeks
[4] = system: Sorghum; assay: Pre-emergence test/greenhouse; assay type: in vivo; conditions: after three weeks
[5] = system: Stellaria; assay: Pre-emergence test/greenhouse; assay type: in vivo; conditions: after three weeks
[6] = system: Chenopodium; assay: Pre-emergence test/greenhouse; assay type: in vivo; conditions: after three weeks
[7] = system: Matricaria; assay: Post-emergence test/greenhouse; assay type: in vivo; conditions: rated after three weeks vs untreated control
[8] = system: Alopecurus; assay: Post-emergence test/greenhouse; assay type: in vivo; conditions: rated after three weeks vs untreated control
[9] = system: Echinochloa; assay: Post-emergence test/greenhouse; assay type: in vivo; conditions: rated after three weeks vs untreated control
[10] = system: Abutilon; assay: Post-emergence test/greenhouse; assay type: in vivo; conditions: rated after three weeks vs untreated control
[11] = system: weeds; assay: Post-emergence test/greenhouse; assay type: in vivo
[12] = system: weeds; assay: Pre-emergence test (overall statement); assay type: in vivo; conditions: application rates between 30 g and 125 g of a.i. per hectare
[13] = application rate 30 g of ai./ha
[14] = application rate 60 g of ai./ha

COc1nc(NC(=O)NS(=O)(=O)c2c(C)cccc2OC)nc(OC)n1 [Example 2, N-(4,6-dimethoxy-1,3,5-triazin-2-yl)-N′-(2-methoxy-6-methyl-phenylsulphonyl)-urea]
Lolium, % damage ([1]; 30 g of ai./ha): 100% | Amaranthus, % damage ([2]; 30 g of ai./ha): 100% | Alopecurus, % damage ([3]; 30 g of ai./ha): 100% | Sorghum, % damage ([4]; 30 g of ai./ha): 100% | Steltaria, % damage ([5]; 30 g of ai./ha): 100% | Chenopodium, % damage ([6]; 30 g of ai./ha): 100% | melting point: 163 °C | degree of damage to the plants, Matricaria [7, 13]: 100% | degree of damage to the plants, Alopecurus [8, 13]: 90% | degree of damage to the plants, Echinochloa [9, 13]: 90% | degree of damage to the plants, Abutilon [10, 13]: 95% | activity against weeds [11]: very strong activity against weeds | activity against weeds [12]: very strong activity against weeds

CCOc1cccc(C)c1S(=O)(=O)NC(=O)Nc1nc(OC)cc(OC)n1 [Example 3, N-(4,6-dimethoxy-pyrimidin-2-yl)-N′-(2-ethoxy-6-methyl-phenylsulphonyl)-urea]
Lolium, % damage ([1]; 60 g of ai./ha): 60% | Amaranthus, % damage ([2]; 60 g of ai./ha): 80% | Alopecurus, % damage ([3]; 60 g of ai./ha): 95% | Sorghum, % damage ([4]; 60 g of ai./ha): 80% | Steltaria, % damage ([5]; 60 g of ai./ha): 95% | Chenopodium, % damage ([6]; 60 g of ai./ha): 95% | melting point: 184 °C | degree of damage to the plants, Matricaria [7, 14]: 95% | degree of damage to the plants, Alopecurus [8, 14]: 90% | degree of damage to the plants, Echinochloa [9, 14]: 80% | degree of damage to the plants, Abutilon [10, 14]: 100% | activity against weeds [11]: very strong activity against weeds | activity against weeds [12]: very strong activity against weeds

From patent US6838414B2, “Substituted aryl sulphonyl(thio)ureas used as herbicides” (Bayer Aktiengesellschaft, priority 1996, dated 2005)
